Earlier results in patent publication US7282218B2, “pH sensitive polymer for inhibiting transformation in drugs” (Council of Scientific and Industrial Research, priority 2003, dated 2007).

Key:
[1] = humans
[2] = amorphous vs crystalline

| bioavailability [1] | solubility of amorphous form relative to the crystalline form [2] [times] | SMILES |
| --- | --- | --- |
| 32-50% | – | CO/N=C(\C(=O)N[C@@H]1C(=O)N2C(C(=O)OC(C)OC(C)=O)=C(COC(N)=O)CS[C@H]12)c1ccco1 (some centres unmarked) [Cefuroxime axetil] |
| – | 10 | CO[C@@H]1[C@@H](OC(N)=O)[C@@H](O)[C@H](Oc2ccc3c(O)c(NC(=O)c4ccc(O)c(CC=C(C)C)c4)c(=O)oc3c2C)OC1(C)C [novobiocin] |
